{"source": "PubChem BioAssay AID330", "about": "(DTP/NCI, 2004)", "tested_on": "P388 leukemia ip, CD2F1 mice, survival T/C", "test": "NCI In Vivo Anticancer Drug Screen. Data for tumor model P388 Leukemia (intraperitoneal) in CD2F1 (CDF1) mice", "settings": "endpoint: median survival time, higher = longer survival", "summary_of_the_method": "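Mice carrying the transplanted tumor received test compound or vehicle. Survival was recorded in each group, and the value is the treated-group measurement divided by that of the vehicle-treated control group.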", "key": {"[1]": {"settings": "dose: 50.0 mg/kg/injection, schedule: Q01DX009 (ip), vehicle: saline"}, "[2]": {"settings": "dose: 100.0 mg/kg/injection, schedule: Q01DX009 (ip), vehicle: saline"}, "[3]": {"settings": "dose: 200.0 mg/kg/injection, schedule: Q01DX009 (ip), vehicle: saline"}, "[4]": {"settings": "dose: 50.0 mg/kg/injection, schedule: Q01DX009 (ip), vehicle: Klucel (hydroxypropylcellulose) (HPC)"}, "[5]": {"settings": "dose: 100.0 mg/kg/injection, schedule: Q01DX009 (ip), vehicle: Klucel (hydroxypropylcellulose) (HPC)"}, "[6]": {"settings": "dose: 200.0 mg/kg/injection, schedule: Q01DX009 (ip), vehicle: Klucel (hydroxypropylcellulose) (HPC)"}}, "note": "Where “and” joins values, the source holds several entries; their conditions need not be identical. Equal values may be shown once. Toxic doses and inconclusive results are not listed."}
{"smiles": "CCCSCN(CC)CC", "values": [{"measurement": "T/C", "setting": "[1]", "result": "95 % of control"}, {"measurement": "T/C", "setting": "[2]", "result": "90 % of control"}, {"measurement": "T/C", "setting": "[3]", "result": "114 % of control"}]}
{"smiles": "COc1cc(NS(C)(=O)=O)ccc1Nc1c2ccc([N+](=O)[O-])cc2nc2c(C)cccc12", "values": [{"measurement": "T/C", "setting": "dose: 3.0 mg/kg/injection, schedule: Q01DX009 (ip), vehicle: saline with Tween-80", "result": "272 % of control"}, {"measurement": "T/C", "setting": "dose: 3.0 mg/kg/injection, schedule: Q04DX003 (ip), vehicle: saline with Tween-80", "result": "181 % of control"}, {"measurement": "T/C", "setting": "dose: 6.0 mg/kg/injection, schedule: Q01DX009 (ip), vehicle: saline with Tween-80", "result": "100 % of control"}, {"measurement": "T/C", "setting": "dose: 6.0 mg/kg/injection, schedule: Q04DX003 (ip), vehicle: saline with Tween-80", "result": "209 % of control"}, {"measurement": "T/C", "setting": "dose: 7.9 mg/kg/injection, schedule: Q04DX003 (ip), vehicle: saline with Tween-80", "result": "218 % of control"}, {"measurement": "T/C", "setting": "dose: 12.0 mg/kg/injection, schedule: Q04DX003 (ip), vehicle: saline with Tween-80", "result": "181 % of control and 231 % of control"}]}
{"smiles": "CNC(=O)OCc1cocc1COC(=O)NC", "values": [{"measurement": "T/C", "setting": "dose: 12.5 mg/kg/injection, schedule: Q01DX009 (ip), vehicle: distilled water + Tween-80", "result": "106 % of control"}, {"measurement": "T/C", "setting": "dose: 25.0 mg/kg/injection, schedule: Q01DX009 (ip), vehicle: distilled water + Tween-80", "result": "101 % of control"}, {"measurement": "T/C", "setting": "dose: 50.0 mg/kg/injection, schedule: Q01DX009 (ip), vehicle: distilled water + Tween-80", "result": "109 % of control"}, {"measurement": "T/C", "setting": "dose: 100.0 mg/kg/injection, schedule: Q01DX009 (ip), vehicle: distilled water + Tween-80", "result": "117 % of control"}]}
{"smiles": "CC(=O)N1CCCC2=C1CCCCCC2", "values": [{"measurement": "T/C", "setting": "dose: 12.5 mg/kg/injection, schedule: Q04DX003 (ip), vehicle: saline", "result": "99 % of control"}, {"measurement": "T/C", "setting": "dose: 25.0 mg/kg/injection, schedule: Q04DX003 (ip), vehicle: saline", "result": "104 % of control"}, {"measurement": "T/C", "setting": "dose: 50.0 mg/kg/injection, schedule: Q04DX003 (ip), vehicle: saline", "result": "104 % of control"}, {"measurement": "T/C", "setting": "dose: 100.0 mg/kg/injection, schedule: Q04DX003 (ip), vehicle: saline", "result": "117 % of control"}, {"measurement": "T/C", "setting": "dose: 200.0 mg/kg/injection, schedule: Q04DX003 (ip), vehicle: saline", "result": "101 % of control"}, {"measurement": "T/C", "setting": "dose: 400.0 mg/kg/injection, schedule: Q04DX003 (ip), vehicle: saline", "result": "100 % of control"}]}
{"smiles": "O=C(O)/C=C/c1ccc(O)c(O)c1", "values": [{"measurement": "T/C", "setting": "[1]", "result": "101 % of control and 103 % of control"}, {"measurement": "T/C", "setting": "[2]", "result": "101 % of control and 118 % of control"}, {"measurement": "T/C", "setting": "[3]", "result": "102 % of control and 107 % of control"}, {"measurement": "T/C", "setting": "dose: 400.0 mg/kg/injection, schedule: Q01DX009 (ip), vehicle: saline", "result": "100 % of control and 103 % of control"}, {"measurement": "T/C", "setting": "dose: 600.0 mg/kg/injection, schedule: Q01DX009 (ip), vehicle: saline", "result": "116 % of control"}]}
{"smiles": "Cc1ccc([N+](=O)[O-])c2ccccc12", "values": [{"measurement": "T/C", "setting": "[4]", "result": "113 % of control and 97 % of control"}, {"measurement": "T/C", "setting": "dose: 50.0 mg/kg/injection, schedule: Q01DX009 (ip), vehicle: saline with Tween-80", "result": "109 % of control"}, {"measurement": "T/C", "setting": "[5]", "result": "100 % of control and 98 % of control"}, {"measurement": "T/C", "setting": "dose: 100.0 mg/kg/injection, schedule: Q01DX009 (ip), vehicle: saline with Tween-80", "result": "100 % of control"}, {"measurement": "T/C", "setting": "[6]", "result": "103 % of control and 120 % of control"}, {"measurement": "T/C", "setting": "dose: 200.0 mg/kg/injection, schedule: Q01DX009 (ip), vehicle: saline with Tween-80", "result": "96 % of control"}, {"measurement": "T/C", "setting": "dose: 400.0 mg/kg/injection, schedule: Q01DX009 (ip), vehicle: Klucel (hydroxypropylcellulose) (HPC)", "result": "86 % of control and 97 % of control"}]}
{"smiles": "CC(=O)OCCn1c2ccccc2nc2cc3c(cc21)c(Cl)c(=O)c1ccccc13", "values": [{"measurement": "T/C", "setting": "dose: 50.0 mg/kg/injection, schedule: Q04DX003 (ip), vehicle: saline with Tween-80", "result": "96 % of control"}, {"measurement": "T/C", "setting": "dose: 100.0 mg/kg/injection, schedule: Q04DX003 (ip), vehicle: saline with Tween-80", "result": "100 % of control"}, {"measurement": "T/C", "setting": "dose: 200.0 mg/kg/injection, schedule: Q04DX003 (ip), vehicle: saline with Tween-80", "result": "100 % of control"}]}
{"smiles": "CCC[CH2][Sn]1([CH2]CCC)[S]CC[N]1S(=O)(=O)c1ccc(C)cc1", "values": [{"measurement": "T/C", "setting": "dose: 1.0 mg/kg/injection, schedule: Q01DX009 (ip), vehicle: gum acacia", "result": "114 % of control"}, {"measurement": "T/C", "setting": "dose: 1.5 mg/kg/injection, schedule: Q01DX009 (ip), vehicle: gum acacia", "result": "106 % of control"}, {"measurement": "T/C", "setting": "dose: 2.25 mg/kg/injection, schedule: Q01DX009 (ip), vehicle: gum acacia", "result": "120 % of control"}]}
{"smiles": "C1Cc2c3c(c4c(c2C1)CCC4)CCC3", "values": [{"measurement": "T/C", "setting": "dose: 25.0 mg/kg/injection, schedule: Q01DX009 (ip), vehicle: Klucel (hydroxypropylcellulose) (HPC)", "result": "91 % of control"}, {"measurement": "T/C", "setting": "[4]", "result": "95 % of control"}, {"measurement": "T/C", "setting": "[5]", "result": "91 % of control"}, {"measurement": "T/C", "setting": "[6]", "result": "100 % of control"}]}
